In ChEMBL document CHEMBL3507680, “University of Dundee, Gates Library screen for HepG2 cell viability” one finds cytotoxicity data, which are given here for 72 compounds.

A short description of the series: Human HepG2 cell viability assay in 384 well format. The format is toxicity, cell-based. More on the design: dose 125 nL, time 70.5 hour; cytotoxicity at 70.5 h: concentration not given beside the values. To be noted: HepG2 cells, read-out: Inhibition.

Turning to `Cc1ccc(CC(=O)N2CCC(Nc3cccnn3)CC2)s1`, the cytotoxicity at 70.5 h came out at 0.908%.

Consider `COCC(c1cccc(C(F)(F)F)c1)N(C)C(=O)c1cccnc1` (configuration not stated), for which the cytotoxicity at 70.5 h is -1.51%.

Take `CC(C(=O)N1CCCN(Cc2cnn(C)c2)CC1)n1ccnc1` (configuration not stated): the cytotoxicity at 70.5 h is 23.2%.

Consider `Cc1ccc(C(=O)NC(CN2CCCC2=O)c2ccccc2)cn1` (configuration not stated), for which the cytotoxicity at 70.5 h was 2.77%.

Consider `CC(C)c1ccc(OCCC(=O)N2CCC(C(=O)N(C)C)CC2)cc1`, for which the cytotoxicity at 70.5 h was -3.99%.

Consider `Cc1nccc(C(=O)NC(CN2CCCC2=O)c2ccccc2)n1` (configuration not stated), for which the cytotoxicity at 70.5 h is -3.75%.

Turning to `COc1c(CNCc2ccnc(N(C)C)c2)c(C(C)C)nn1C`, the cytotoxicity at 70.5 h came out at 0.688%.

Turning to `CC(C)c1nn(C)c(N(C)C)c1CNCc1ccc(N(C)C)nc1`, the cytotoxicity at 70.5 h worked out at 3.68%.

With `CC(C(=O)N1CCN(Cc2ccc3c(c2)OCO3)CC1)n1ccnc1` (configuration not stated), the cytotoxicity at 70.5 h amounted to 0.67%.

Take `CCNC(=O)NC(=O)CN1CCC(c2cccc(F)c2)C1` (configuration not stated): the cytotoxicity at 70.5 h is -2.05%.

On to `CCn1c(CN2CCN(C(=O)C3CCC3)CC2)nc2c(F)cccc21`, for which the cytotoxicity at 70.5 h worked out at 1.75%.

`CCNc1cc2c(nn1)CCN(C(=O)c1nccnc1N)C2`: the cytotoxicity at 70.5 h was -2.38%.

With `CCNc1cc2c(nn1)CCN(C(=O)c1ccc3c(c1)OCO3)C2`, the cytotoxicity at 70.5 h is -4.42%.

As for `Cc1ccc(NC2CCN(C(=O)Cc3c(C)nn(C)c3C)CC2)nn1`, the cytotoxicity at 70.5 h is -1.21%.

As to `COCC(c1cccc(C(F)(F)F)c1)N(C)C(=O)c1ccco1` (configuration not stated), the cytotoxicity at 70.5 h is -1.02%.

As to `CC(C)c1cc(NC(=O)CN2CCn3c(nnc3C3CC3)C2)on1`, the cytotoxicity at 70.5 h was determined as 19.6%.

Take `CC(C)(C)c1cc(NC(=O)CN2CCn3c(nnc3C3CC3)C2)on1`: the cytotoxicity at 70.5 h was determined as 3.06%.

Consider `O=C(CCc1ccccc1Cl)NS(=O)(=O)c1ccc2c(c1)OCCO2`, for which the cytotoxicity at 70.5 h is -2.93%.

For `OC(COCc1ccc2c(c1)OCO2)CN1CC(n2cccn2)C1` (configuration not stated), the cytotoxicity at 70.5 h was found to be 3.04%.

`c1ncn(CC2CN(Cc3nc(-c4ccsc4)no3)CCO2)n1` (configuration not stated): the cytotoxicity at 70.5 h is -6.98%.

`OC(COCc1ccccc1)CN1CC(n2cccn2)C1` (configuration not stated): the cytotoxicity at 70.5 h is -3.54%.

`Cc1nc(CN2CCN(C(=O)NC(C)c3cccnc3)CC2)cs1` (configuration not stated): the cytotoxicity at 70.5 h amounted to 30.6%.

Consider `OC(COCc1ccc(Cl)cc1)CN1CC(n2cccn2)C1` (configuration not stated), for which the cytotoxicity at 70.5 h is -2.28%.

In the case of `Cc1nc(C)n(CC2CCCN2Cc2nc(-c3ccccn3)no2)n1` (configuration not stated), the cytotoxicity at 70.5 h was -7.25%.

As to `CC(=O)NC(CC(=O)Nc1ccc(C)cn1)c1ccccc1` (configuration not stated), the cytotoxicity at 70.5 h was -6.79%.

As for `Cc1cc(CN2CCN(C(=O)NC(C)c3cccs3)CC2)on1` (configuration not stated), the cytotoxicity at 70.5 h was -5.41%.

For `Cc1cc(CN2CCN(C(=O)NC(C)c3ccncc3)CC2)on1` (configuration not stated), the cytotoxicity at 70.5 h was -9.79%.

Consider `Cc1cc(CN2CCN(C(=O)NC(C)c3ccc(C)o3)CC2)on1` (configuration not stated), for which the cytotoxicity at 70.5 h was -9.49%.

In the case of `Cc1cc2n(n1)CC(CNCc1ccccc1-n1cccn1)CN2` (configuration not stated), the cytotoxicity at 70.5 h was -4.8%.

Regarding `COC(=O)c1cc(C(=O)N2CCC(OC)CC2)n(-c2ccccc2)n1`, the cytotoxicity at 70.5 h was -2.53%.

Turning to `O=C(c1ccc(-n2cccn2)nc1)N1CCCC(n2cccn2)C1` (configuration not stated), the cytotoxicity at 70.5 h is -7.62%.

As for `Cc1ccc(-c2noc(CN3CCOC(Cn4cccn4)C3)n2)cc1` (configuration not stated), the cytotoxicity at 70.5 h is -3.88%.

For the compound `Cc1ccccc1-c1noc(CN2CCOC(Cn3cccn3)C2)n1` (configuration not stated), the cytotoxicity at 70.5 h was -10.3%.

Regarding `CCc1nnc2n1CCN(Cc1ncc(-c3ccc(F)cc3)o1)C2`, the cytotoxicity at 70.5 h was -6.74%.

In the case of `Cc1cnn(CC2CCCN2C(=O)CCc2cscn2)c1` (configuration not stated), the cytotoxicity at 70.5 h is -13.6%.

Turning to `CCc1nnc2n1CCN(Cc1ncc(-c3ccccc3)o1)C2`, the cytotoxicity at 70.5 h was -13.5%.

Turning to `CC(C(=O)NCc1ccnc(N2CCCCCC2)c1)n1cccn1` (configuration not stated), the cytotoxicity at 70.5 h worked out at 17.8%.

On to `Cc1cccc(-c2noc(CN3CCC(N4CCNC4=O)CC3)n2)c1`, for which the cytotoxicity at 70.5 h was -0.858%.

For `CC(=O)Nc1nc(CN2CCCC2Cn2cncn2)cs1` (configuration not stated), the cytotoxicity at 70.5 h was found to be 35.6%.

For the compound `CCn1cnnc1C1CCN(C(=O)c2ccc(C(=O)OC)s2)CC1`, the cytotoxicity at 70.5 h is -10.6%.

Regarding `c1ccc(OCCCN2CCN(c3ccc4nncn4n3)CC2)cc1`, the cytotoxicity at 70.5 h worked out at 2.05%.

In the case of `CN(Cc1cc(-c2ccccc2)no1)C1CCCN(c2cccnn2)C1` (configuration not stated), the cytotoxicity at 70.5 h is -13.5%.

On to `CCN1CCN(C2CCN(Cc3nc(-c4ccoc4)no3)CC2)C1=O`, for which the cytotoxicity at 70.5 h turned out to be 1.49%.

Turning to `COCC(=O)N1CCN(Cc2coc(-c3cccc(F)c3)n2)CC1`, the cytotoxicity at 70.5 h was -6.62%.

Turning to `COCCN1CCC(NCc2cccnc2)C1` (configuration not stated), the cytotoxicity at 70.5 h came to 2.68%.

Turning to `CC(NC(=O)CNCCn1cccn1)c1ccc2c(c1)OCCO2` (configuration not stated), the cytotoxicity at 70.5 h is -7.87%.

In the case of `c1ncn(CC2CCCCN2Cc2csc(C3CCCC3)n2)n1` (configuration not stated), the cytotoxicity at 70.5 h is 33.9%.

On to `CCc1nccn1C1CCCN(C(=O)c2ccc(C(=O)NC)nc2)C1` (configuration not stated), for which the cytotoxicity at 70.5 h is -5.35%.

Regarding `CCc1nc(CN2CCCN(c3nccs3)CC2)no1`, the cytotoxicity at 70.5 h amounted to 6.55%.

`CC(=O)N1CCC[C@H]1C(=O)NCCOc1cccc(Cl)c1`: the cytotoxicity at 70.5 h is 0.931%.

Turning to `CC(C)(C)c1noc(CN2CCCN(Cc3cccs3)CC2)n1`, the cytotoxicity at 70.5 h was -3.44%.

Turning to `Cc1cncc(C(=O)N2CCCCC2c2nc(C)cs2)c1` (configuration not stated), the cytotoxicity at 70.5 h came out at 17.3%.

`CNC(=O)C1CCN(C(=O)c2cccn2Cc2cccs2)CC1`: the cytotoxicity at 70.5 h was -8.46%.

Turning to `CCN(C)S(=O)(=O)N(CC)Cc1ccc2c(c1)OCO2`, the cytotoxicity at 70.5 h is -17.8%.

With `Cc1nnc(NC(=O)NCc2cccnc2N(C)C)s1`, the cytotoxicity at 70.5 h was -8.59%.

`Cc1ccccc1CS(=O)(=O)CC(=O)NC1CCCCNC1=O` (configuration not stated): the cytotoxicity at 70.5 h was -11.3%.

For the compound `CC(C)Cc1noc(CN2CCN(c3nccs3)CC2)n1`, the cytotoxicity at 70.5 h is -3.87%.

Turning to `CC(Cn1cccn1)NC(=O)Nc1nnc(C2CC2)s1` (configuration not stated), the cytotoxicity at 70.5 h is -11%.

As to `O=C(Nc1cc(C(F)(F)F)c[nH]c1=O)N1CCCSCC1`, the cytotoxicity at 70.5 h is -8.3%.

Regarding `c1csc(N2CCCN(Cc3nc(C4CC4)no3)CC2)n1`, the cytotoxicity at 70.5 h was -15.8%.

On to `CC(=O)N1CCCC1C(=O)NCCOc1cc(C)cc(C)c1` (configuration not stated), for which the cytotoxicity at 70.5 h was -30.3%.

Take `O=C(C1CC1)N1CCN(Cc2coc(-c3ccc(Cl)cc3)n2)CC1`: the cytotoxicity at 70.5 h was 12.1%.

Consider `COc1ccccc1S(=O)(=O)Nc1ccc2c(C(=O)O)c[nH]c2c1`, for which the cytotoxicity at 70.5 h was -6.86%.

For `COC(=O)C(NC(=O)C(C)C)c1cc(F)ccc1F` (configuration not stated), the cytotoxicity at 70.5 h was -20.7%.

Turning to `CCNc1cc2c(nn1)CCN(C(=O)c1cccc3c1OCCO3)C2`, the cytotoxicity at 70.5 h was -9.67%.

For the compound `Cn1cccc1C(=O)Nc1cc(F)ccc1OCC1CCCO1` (configuration not stated), the cytotoxicity at 70.5 h is -17.4%.

Take `O=C(Nc1cc(F)ccc1OCC1CCCO1)N1CCCC1` (configuration not stated): the cytotoxicity at 70.5 h was -17.1%.

For the compound `Cc1nc(C2CCCN(C(=O)CCCn3ccnc3C)C2)no1` (configuration not stated), the cytotoxicity at 70.5 h was -11.8%.

Turning to `Cc1nc(C2CCCN(C(=O)c3ccc(Cn4cccn4)o3)C2)no1` (configuration not stated), the cytotoxicity at 70.5 h is -12.8%.

For `Clc1snnc1CN1CCOC(CNc2cccnn2)C1` (configuration not stated), the cytotoxicity at 70.5 h is -21.7%.

With `CN(C)c1ccc(CNc2cncc(-n3cccn3)n2)cc1`, the cytotoxicity at 70.5 h is -4.47%.

Consider `Cc1nc(C)n(CC2CCCN2CC(=O)Nc2ccnn2C(C)C)n1` (configuration not stated), for which the cytotoxicity at 70.5 h is 17%.
